In this test the target is Alpha-mannosidase (Canavalia ensiformis). The test is described as follows: Inhibitory activity against Mannosidase in jack bean (Canavalia ensiformis).

As usually defined, the IC50 is the concentration that gives 50% inhibition. Low values mean inhibition by little substance, high ones a need for much substance. On to `OC[C@@H](O)[C@H]1NC[C@@H](O)[C@H]1O`, for which the IC50 was 500 nM.
Under `C[C@@H](O)[C@H]1NC[C@@H](O)[C@H]1O` stands 600 nM.

Values taken from BindingDB's records for doi:10.1021/jm00129a011 (Csiro Division of Chemicals and Polymers, 1989).
